Reference: patent publication US12617864B2, “Methods of activating and proliferating exhausted CD8 T cells, CD8 T cells with enhanced activity prepared by the same, and uses thereof” (Medgene Therapeutics, Inc., priority 2021, dated 2026)

What was measured:
Klf4 gene = Klf4 gene expression in CD8 T cells treated with APTO-253; format: cell-based, mice; settings: 3 μM APTO-253 for 3 days (72 hours) during activation; compared to PBS-treated CD8 T cells
Procedure: (§1) Accordingly, in the same manner as above, after separating naïve CD8 T cells, naïve CD8 T cells were seeded on a plate coated with anti-CD3 antibody and in the process of activation, anti-CD28 antibody (2 μg/ml) and mIL-2 (100 U/ml) was treated with 3 μM of APTO-253 (MedChemExpress, LLC). Then, it was cultured for 72 hours in a 37° C. 5% CO2 cell incubator. After completion of the culture, the cells were transferred to a 15 ml centrifuge tube, and the volume was adjusted to 3 ml by adding RPMI medium. After that, 3 ml of Histopaque (Sigma) was carefully placed in the lower layer. Then, centrifugation was carried out for 30 minutes at 25° C. at 2,000 rpm, and at this time, acceleration and deceleration were set to a minimum. After centrifugation, the culture solution of the upper layer was removed, and the cells present at the interface were recovered, transferred to a 15 ml centrifuge tube, resuspended in 10 ml of PBS, and centrifuged for 5 minutes at 4° C. and 1,500 rpm. After centrifugation, the supernatant was removed, the cell pellet was washed once more with 10 mL of PBS and centrifuged for 5 minutes at 4° C. and 1,500 rpm. After centrifugation, the supernatant was removed, the cell pellet was resuspended in an appropriate amount of PBS, and the cells were counted. […]

MC38 cancer cells = assay: Mouse tumor model: MC38 in Rag2 KO mice given CD8 T cells treated with APTO-253; settings: 5×10^5 CD8 T cells treated ex vivo with APTO-253 for 3 days, i.v. the day after 3×10^5 MC38; until day 15; vs PBS-treated CD8 T cells
Procedure: as §1

[1] = system: CD8 T cells from OT-I transgenic mice; assay: In vitro exhaustion experiment: repeated OVA peptide stimulation of CD8 T cells, gene expression by qRT-PCR; format: cell-based; settings: repeated stimulation+IL-21 treatment group, OVA peptide 10 ng/ml for 5 days
Procedure: To this end, the present inventors specifically isolated CD8 T cells from OT-I transgenic mice having OVA (ovalbumin)-peptide-specific T cell receptor (TCR) and repeatedly treated the OVA peptide for 5 days. All experimental sets were treated with IL-15 (5 ng/ml) and IL-7 (5 ng/ml) to increase the viability of CD8 T cells. After treatment with OVA peptide (10 ng/ml) and washing the next day, stimulation was repeatedly applied for 5 days in such a way that cytokines and OVA peptide were treated with the same composition again (repeated stimulation treatment group). At this time, as a control group, only a cytokine-treated group without OVA peptide treatment and a single stimulation treatment group in which OVA peptide (10 ng/ml) was treated for 2 days and washed, and then only cytokine was treated for 3 days were added. In addition, a set treated with IL-21, which is known to help activate CD8 T cells, was also added (repetitive stimulation+IL-21 treated group) (FIG. 1A). After 5 days, live CD8 T cells were isolated using a cell sorter, RNA was extracted, reverse transcribed into cDNA, and the expression levels of various genes were confirmed by qRT-PCR. […]

| Compound | Klf4 gene expression level in CD8 T cells (Klf4 gene) | tumor growth (tumor volume) (MC38 cancer cells) | expression of the Klf4 gene [1] | expression of the Tox gene ([1]; compared with repeated stimulation group) |
| --- | --- | --- | --- | --- |
| Cc1[nH]c2ccc(F)cc2c1-c1nc2c3cccnc3c3ncccc3c2[nH]1 [APTO-253, 2-(5-fluoro-2-methyl-1H-indol-3-yl)-1H-imidazo[4,5-f][1,10]phenanthroline] | increased Klf4 gene expression level | decreased tumor growth | – | – |
| IL-21: cytokine known to help activate CD8 T cells | – | – | significantly increased | decreased |
